System: advance progressive cancers that are refractory to, or have relapsed on, all conventional therapies
Assay: ProGem1 dose escalation clinical study: clinical response (RECIST 1.1, tumour markers)
Type: in vivo, human
Set-up: CA125 level / CA19.9 / CEA / CA125 / Tumour volume / CA 15.3 tumour marker / inhibin B: unit not given here
Details: for CA 15.3 tumour marker: 726 at base; for inhibin B: 1,038 prior to study entry
Source text: The following data were generated in clinical studies of NUC-1031 in human patients with advance progressive cancers that are refractory to, or have relapsed on, all conventional therapies that have been used to date. The results clearly illustrate the ability of NUC-1031 to successfully treat refractory cancers.
Although the primary objectives of the dose escalation part of the study were to determine the Recommended Phase II Dose (RP2D) and safety profile, secondary objectives included determining the PK profile, however effective treatment of patients with a range of refractory cancers has also been observed as part of this study.
A total of 68 patients have been entered into this dose escalation study, of which 49 were evaluable for clinical response in that they have received at least 2 Cycles of NUC-1031 and were therefore eligible for a RECIST 1.1 assessment.
NUC-1031 was administered as a 5 to 30 minute intravenous slow bolus injection. • Schedule A: NUC-1031 was administered on days 1, 8, 15 of a 4 weekly Cycle. • Schedule B: NUC-1031 was administered on days 1, 5, 8, 12, 15, 19, of a 4 weekly Cycle.
Evaluable patients were patients that received ≥ 2 Cycles of NUC-1031 and were therefore eligible for a RECIST 1.1 assessment at the end of Cycle 2. Where the disease response duration, measured in months, is followed by a “+” this indicates ongoing disease control as of the latest cut-off date.

[1] = evaluable patients n = 49, RECIST 1.1

Substance: gemcitabine-[phenyl-benzoxy-L-alaninyl)]-phosphate [NUC-1031]
- Reduction in tumour volume (Patient 037, pancreatic cancer, CT scan on 29th April 2014): 30%
- Reduction in tumour volume (Patient 037, pancreatic cancer, end of Cycle 2 CT scan): 18.4%
- CEA (Patient 037, pancreatic cancer, from 536 at baseline): 42
- CA19.9 (Patient 037, pancreatic cancer, from 15,000 at baseline): 4,000
- Response to RECIST (Patient 038, ovarian cancer, 900 mg/m^2 weekly): Progressive Disease
- Increase in tumour volume (Patient 038, ovarian cancer, end of Cycle 2 scan): 25%
- Disease response duration (Patient 040, cholangiocarcinoma): 4 months
- CA19.9 (Patient 040, cholangiocarcinoma, 4th June, from 664 at baseline): 155
- Response to RECIST (Patient 040, cholangiocarcinoma, 1,000, then 900 mg/m^2 weekly): Stable Disease
- Tumour volume (Patient 040, cholangiocarcinoma, end of Cycle 2 CT scan, from 85 at base): 82.1
- Disease response duration (Patient 041, breast cancer): 4 months
- Symptomatic benefit (Patient 041, breast cancer): managed to reduce opioids significantly
- CA 15.3 tumour marker (Patient 041, breast cancer, 19th May 2014): 824
- Response to RECIST (Patient 041, breast cancer, 900, then 825 mg/m^2 weekly): Stable Disease
- CA 15.3 tumour marker (Patient 041, breast cancer, at C2): 845
- Response to RECIST (Patient 042, cholangiocarcinoma, 900 mg/m^2 weekly): Progressive Disease
- Reduction in tumour volume of primary target lesion (Patient 042, cholangiocarcinoma, end of Cycle 2 CT scan): 9%
- Disease response duration (Patient 043, ovarian cancer): 13 months
- PET scan finding (Patient 043, ovarian cancer, 7th April 2014): stable disease and SUV had gone down in some target tumours
- CA125 (Patient 043, ovarian cancer, 15th July, from 1,099 at baseline): 910
- Response to RECIST (Patient 043, ovarian cancer, 900, then 750 mg/m^2 weekly): Stable Disease
- CA125 (Patient 043, ovarian cancer, beginning of Cycle 2, from 1.099 at baseline): 783
- Reduction in tumour volume from baseline (Patient 043, ovarian cancer, end of Cycle 6 CT scan): 10%
- Volume of fluid drained from pleural effusion (Patient 043, ovarian cancer, was 300ml per week): 150 ml per week
- Disease response duration (Patient 044, lung cancer): 5 months
- Response to RECIST (Patient 044, lung cancer (adenocarcinoma), 900, then 825 mg/m^2 weekly): Stable Disease
- Reduction in tumour volume (Patient 044, lung cancer, end of Cycle 2 CT scan): 10%
- Disease response duration (Patient 046, adrenal carcinoma): 11 months
- Response to RECIST (Patient 046, adrenal carcinoma, 1,000, then 900, 750, 625 mg/m^2 weekly): Stable Disease
- Reduction in tumour volume from baseline (Patient 046, adrenal carcinoma, end of Cycle 6 CT scan): 12.6%
- Disease response duration (Patient 048, ovarian cancer): 8 months
- Response to RECIST (Patient 048, ovarian cancer (granulosa cell tumour), 1,000, then 900, 825, 750, 625 mg/m^2 weekly): Stable Disease
- inhibin B (Patient 048, ovarian cancer, August): 1148
- inhibin B (Patient 048, ovarian cancer, July 2014): 1,106
- inhibin B (Patient 048, ovarian cancer, September): 1053
- PET scan finding (Patient 048, ovarian cancer, end of Cycle 1): stable disease and reduction in SUV at target sites
- Symptomatic benefit (Patient 050 (202), oesophageal cancer): improvement in their dysphagia
- Response to RECIST (Patient 050 (202), oesophageal cancer, 900 mg/m^2 weekly): Progressive Disease
- Response to RECIST (Patient 051 (203), anal cancer, 900 mg/m^2 weekly): Progressive Disease
- Disease response duration (Patient 052 (204), oesophageal cancer): 5 months
- Response to RECIST (Patient 052 (204), oesophageal cancer, 900, then 825 mg/m^2 weekly): Stable Disease
- Response to RECIST (Patient 053 (205), colon cancer, 900 mg/m^2 weekly): Progressive Disease
- Response to RECIST (Patient 055 (207), ovarian cancer, 900, then 825, 625 mg/m^2 weekly): Stable Disease
- CA125 (Patient 055 (207), ovarian cancer, January 2015, 36 at baseline): 24
- Reduction in tumour volume from baseline (Patient 055 (207), ovarian cancer, end of Cycle 6 CT scan): 18%
- Disease response duration (Patient 055 (207), ovarian cancer, ongoing): ≥ 10 months
- Disease response duration (Patient 057 (209), ovarian cancer): 5 months
- Response to RECIST (Patient 057 (209), ovarian cancer, 900, then 825, 750 mg/m^2 weekly): Stable Disease
- Reduction in tumour volume from baseline (Patient 057 (209), ovarian cancer, end of Cycle 4 CT scan): 10%
- Disease response duration (Patient 058 (210), lung cancer): 4 months
- Response to RECIST (Patient 058 (210), lung cancer, 825, then 750 mg/m^2 weekly): Stable Disease
- Disease response duration (Patient 059 (211), cervical cancer): 7 months
- Response to RECIST (Patient 059 (211), cervical cancer, 825, then 750, 625 mg/m^2 weekly): Stable Disease
- Response to RECIST (Patient 060 (212), pancreatic cancer, 825 mg/m^2 weekly): Progressive Disease
- Disease response duration (Patient 061 (213), colorectal cancer): 3 months
- Response to RECIST (Patient 061 (213), colorectal cancer, 825 mg/m^2 weekly): Stable Disease
- Reduction in tumour volume (Patient 061 (213), colorectal cancer, end of Cycle 2 CT scan): 2%
- Disease response duration (Patient 063 (215), ovarian cancer): 3 months
- Response to RECIST (Patient 063 (215), ovarian cancer, 825, then 750, 625 mg/m^2 weekly): Stable Disease
- Response to RECIST (Patient 064 (216), trophoblastic cancer, 825 mg/m^2 weekly): Progressive Disease
- Response to RECIST (Patient 066 (218), colorectal cancer, 825, then 750, 625 mg/m^2 weekly): Stable Disease
- Reduction in tumour volume from baseline (Patient 066 (218), colorectal cancer, CT scan on 30th December): 16%
- Disease response duration (Patient 066 (218), colorectal cancer, ongoing): ≥ 8 months
- Increase from baseline (EOS CT scan) (Patient 067 (219), osteosarcoma): 1%
- Response to RECIST (Patient 067 (219), osteosarcoma, 825, then 750 mg/m^2 weekly): Stable Disease
- Disease response duration (Patient 067 (219), osteosarcoma, ongoing): ≥ 7 months
- Response to RECIST (Patient 068 (220), lung cancer, 825 mg/m^2 weekly): Progressive Disease
- Response to RECIST (Patient 069 (221), colorectal cancer, 825, then 750, 675, 625, 500 mg/m^2 weekly): Stable Disease
- PET scan finding (Patient 069 (221), colorectal cancer, PET scan on 30/10): Partial Response
- Reduction in tumour volume from baseline (Patient 069 (221), colorectal cancer, end of C2 CT scan): 11%
- Reduction in tumour volume from baseline (Patient 069 (221), colorectal cancer, end of C4 CT scan): 26%
- Disease response duration (Patient 069 (221), colorectal cancer, ongoing): ≥ 7 months
- Clinical examination of metastases (Patient 069 (221), colorectal cancer, pre C2 examination): cutaneous and sub cutaneous metastases were greatly reduced or almost vanished
- Best Overall Response: Partial Responses, patients (%) [1]: 5 (10%)
- Best Overall Response: Progressive Disease, patients (%) [1]: 11 (22%)
- Best Overall Response: Stable Disease, patients (%) [1]: 33 (67%)

Reference: US20230226092A1, “CANCER […] ON G[…]” (NuCana plc, priority 2015, published 2023)
